Measurements published in patent publication US20150079000A1, “Labelled Quinoxaline Derivatives as Multimodal Radiopharmaceuticals and Their Precursors” (INSTITUT NATIONAL DE LA SANTET DE LA RECHERCHE MEDICALE, priority 2012, published 2015).

Key:
[1] = Metabolism of compound [125I](1); format: in vivo, mice
Procedure: 24 primary melanoma bearing mice were intravenously injected with 2.2 MBq of [^1251](1) and sacrificed 1 h, 3 h, 6 h, 24 h, 72 h and 10 days after tracer injection. To determine the metabolic stability of [^1251](1), blood, tumour, eyes, liver, kidney and urine samples were collected at each time point […]. Faeces were collected between 0-24 h and 24-48 h. Blood was immediately diluted in 5 mL of methanol/NH4OH 99.8:0.2 and centrifuged for 5 min at 3,000 rpm. Tumour, eyes, liver, kidneys and faeces were suspended in 5 mL of methanol/NH4OH 99.8:0.2, homogenized using GentleMACS™ dissociator (Miltenyi Biotec, Bergisch Gladbach, Germany) and centrifuged for 5 min at 3,000 rpm (repeated 2 times). Urines were analysed without any treatment. The extraction efficiency was determined by measuring the radioactivity of supernatants and precipitates. Supernatants were passed through a 0.22 μm Millipore filter and then concentrated to a volume between 200 and 500 μL before injection (duplicate) onto the analytical HPLC(C18 column; solvent A: H2O (0.2% NH4OH); solvent B: MeOH (0.2% NH4OH); Gradient elution: 0-5 min: 90 to 70% of A (Q=0.5 mL·min^−1); 5-30 min: 70 to 20% of A (Q=0.9 mL·min^−1); 30-32 min: 10% of A (Q=0.9 mL·min^−1)).

[2] = test system: B16 murine melanoma tumours; assay: Ex vivo biodistribution study for compound [125I](1); format: in vivo, C57BL/6J mice
Procedure: Twenty four B16BL6 primary melanoma bearing mice were intravenously injected with 2.2 MBq of [^1251]1 and sacrificed 1 h, 3 h, 6 h, 24 h, 72 h and 10 days after tracer injection (n=4/time point). Tumours and major organs and tissues were promptly excised, harvested, weighted and their radioactivity counted using a calibrated γ-counter with a […] energy window. After radioactive decay correction, results were expressed as percentage of injected dose per gram of tissue (% ID/g).

CCN(CCNC(=O)c1cnc2cc([125I])ccc2n1)CCOCCOCCOCCF [[^125I](1)]
% of radioactivity ([1]; Blood, 1 h after [125I](1) injection): 2.0 ± 2.8% | % of radioactivity ([1]; Blood, 3 h after [125I](1) injection): 0.0 ± 0.0% | % of radioactivity ([1]; Blood, 6 h after [125I](1) injection): 3.5 ± 4.9% | % of radioactivity ([1]; Eyes, 1 h after [125I](1) injection): 90.5 ± 0.7% | % of radioactivity ([1]; Eyes, 3 h after [125I](1) injection): 94.5 ± 2.1% | % of radioactivity ([1]; Eyes, 6 h after [125I](1) injection): 96.0 ± 5.7% | % of radioactivity ([1]; Eyes, 24 h after [125I](1) injection): 90.0 ± 2.8% | % of radioactivity ([1]; Eyes, 72 h after [125I](1) injection): 96.5 ± 4.9% | % of radioactivity ([1]; Eyes, 10 d after [125I](1) injection): 100.0 ± 0.0% | % of radioactivity ([1]; Feces, (grid: 3 h; faeces collected 24-48 h)): 2.5 ± 0.7% | % of radioactivity ([1]; Feces, first value column (grid: 1 h; faeces collected 0-24 h)): 5.0 ± 0.0% | % of radioactivity ([1]; Kidney, 1 h after [125I](1) injection): 12.5 ± 2.1% | % of radioactivity ([1]; Kidney, 3 h after [125I](1) injection): 6.1 ± 2.9% | % of radioactivity ([1]; Kidney, 6 h after [125I](1) injection): 0.0 ± 0.0% | % of radioactivity ([1]; Liver, 1 h after [125I](1) injection): 27.5 ± 0.7% | % of radioactivity ([1]; Liver, 3 h after [125I](1) injection): 24.0 ± 4.2% | % of radioactivity ([1]; Liver, 6 h after [125I](1) injection): 8.5 ± 0.7% | % of radioactivity ([1]; Liver, 24 h after [125I](1) injection): 0.0 ± 0.0% | % of radioactivity ([1]; Tumour, 1 h after [125I](1) injection): 87.0 ± 1.4% | % of radioactivity ([1]; Tumour, 3 h after [125I](1) injection): 81.0 ± 1.4% | % of radioactivity ([1]; Tumour, 6 h after [125I](1) injection): 77.0 ± 0.0% | % of radioactivity ([1]; Tumour, 24 h after [125I](1) injection): 92.5 ± 9.2% | % of radioactivity ([1]; Tumour, 72 h after [125I](1) injection): 91.5 ± 3.5% | % of radioactivity ([1]; Tumour, 10 d after [125I](1) injection): 100.0 ± 0.0% | % of radioactivity ([1]; Urine, 1 h after [125I](1) injection): 12.6 ± 0.5% | % of radioactivity ([1]; Urine, 3 h after [125I](1) injection): 0.0 ± 0.0% | % of radioactivity ([1]; Urine, 6 h after [125I](1) injection): 0.0 ± 0.0% | % of radioactivity ([1]; Urine, 24 h after [125I](1) injection): 0.0 ± 0.0% | % of radioactivity ([1]; Urine, 72 h after [125I](1) injection): 0.0 ± 0.0% | % ID/g Adipose ([2]; 1 h p.i.): 0.61 ± 0.01 % ID/g | % ID/g Blood ([2]; 1 h p.i.): 0.97 ± 0.07 % ID/g | % ID/g Bones ([2]; 1 h p.i.): 0.79 ± 0.09 % ID/g | % ID/g Brain ([2]; 1 h p.i.): 0.27 ± 0.03 % ID/g | % ID/g Ceacum ([2]; 1 h p.i.): 4.97 ± 3.01 % ID/g | % ID/g Colon ([2]; 1 h p.i.): 4.51 ± 4.40 % ID/g | % ID/g Heart ([2]; 1 h p.i.): 1.17 ± 0.07 % ID/g | % ID/g Kidney ([2]; 1 h p.i.): 4.75 ± 0.71 % ID/g | % ID/g Liver ([2]; 1 h p.i.): 6.33 ± 1.69 % ID/g | % ID/g Lung ([2]; 1 h p.i.): 3.12 ± 0.42 % ID/g | % ID/g Muscle ([2]; 1 h p.i.): 0.55 ± 0.16 % ID/g | % ID/g Pancreas ([2]; 1 h p.i.): 2.96 ± 0.15 % ID/g | % ID/g Skin ([2]; 1 h p.i.): 1.04 ± 0.06 % ID/g | % ID/g Small intestine ([2]; 1 h p.i.): 16.68 ± 10.70 % ID/g | % ID/g Spleen ([2]; 1 h p.i.): 2.14 ± 0.20 % ID/g | % ID/g Stomach ([2]; 1 h p.i.): 9.2 ± 1.49 % ID/g | % ID/g Testes ([2]; 1 h p.i.): 0.68 ± 0.19 % ID/g | % ID/g Adipose ([2]; 3 h p.i.): 0.36 ± 0.05 % ID/g | % ID/g Blood ([2]; 3 h p.i.): 0.82 ± 0.05 % ID/g | % ID/g Bones ([2]; 3 h p.i.): 0.48 ± 0.03 % ID/g | % ID/g Brain ([2]; 3 h p.i.): 0.15 ± 0.01 % ID/g | % ID/g Ceacum ([2]; 3 h p.i.): 25.73 ± 7.88 % ID/g | % ID/g Colon ([2]; 3 h p.i.): 21.19 ± 18.02 % ID/g | % ID/g Heart ([2]; 3 h p.i.): 0.77 ± 0.05 % ID/g | % ID/g Kidney ([2]; 3 h p.i.): 3.14 ± 1.27 % ID/g | % ID/g Liver ([2]; 3 h p.i.): 3.37 ± 0.14 % ID/g | % ID/g Lung ([2]; 3 h p.i.): 2.14 ± 0.27 % ID/g | % ID/g Muscle ([2]; 3 h p.i.): 0.30 ± 0.04 % ID/g | % ID/g Pancreas ([2]; 3 h p.i.): 1.48 ± 0.07 % ID/g | % ID/g Skin ([2]; 3 h p.i.): 1.34 ± 0.72 % ID/g | % ID/g Small intestine ([2]; 3 h p.i.): 4.16 ± 0.70 % ID/g | % ID/g Spleen ([2]; 3 h p.i.): 2.37 ± 2.58 % ID/g | % ID/g Stomach ([2]; 3 h p.i.): 4.53 ± 0.94 % ID/g | % ID/g Testes ([2]; 3 h p.i.): 0.54 ± 0.03 % ID/g | % ID/g Adipose ([2]; 6 h p.i.): 0.19 ± 0.06 % ID/g
